# Measured values published in patent US8623839B2, “Compositions and methods for stabilized polysaccharide formulations” (DePuy Mitek, LLC, priority 2011, dated 2014).
# Experiments:
# [1] = test system: rabbit anterior cruciate ligament transection (ACLT) model of OA; assay: Rabbit ACLT model of osteoarthritis, modified Mankin scale; type: in vivo; details: 5% solution in 3 mM glycine-HCl buffer pH approx. 3, intra-articular weekly for seven weeks, euthanasia at 8 weeks; vs untreated animals (FIG. 9)
# Experimental: The trehalose formulation (a 5% trehalose solution in 3 mM glycine-HCl buffer having a pH of approximately 3) described above was also tested in the rabbit anterior cruciate ligament transection (ACLT) model of OA. The ACLT surgery destabilized the rabbit knee to a greater extent than meniscal transection, resulting in not only substantial cartilage deterioration but also osteophyte formation. Studies investigating the development and regulation of osteophyte formation in the rabbit model of OA have detected plate-like formations as early as 4 weeks post-ACLT, and osteophyte growth in all compartments of the knee by 12 weeks post-ACLT.
# Rabbits were anesthetized. The patellar fat pad was retracted, and the ACL was isolated. The anterior cruciate ligament was severed with a surgical blade. The fibrous capsule and subcutaneous tissue were closed prior to the skin being sutured. Beginning one week after surgery, intra-articular injections were given weekly for seven weeks, followed by euthanasia at 8 weeks. Cartilage degradation was determined histologically using a modified Mankin scale. Higher scores indicated more extensive cartilage degradation, with a maximum score of 18.
# […] decreased cartilage degeneration as a result of the intra-articular trehalose injections.
# [2] = test system: rat medial meniscal tear (MMT) model of osteoarthritis; assay: Rat MMT model of osteoarthritis, histology; type: in vivo
# Text: In the rat medial mensical tear (MMT) model of osteoarthritis, transection of the medial meniscus results in joint deterioration and reduced weight bearing that mimics human osteoarthritis. A unilateral medial meniscal tear in 300-400 gram rats results in rapidly progressive cartilage degenerative changes characterized by chondrocyte and proteoglycan loss, fibrillation, osteophyte formation and chondrocyte cloning. Such changes are typically observed to be substantial by day 21 following the meniscal surgery. The extent of joint deterioration, as determined primarily by the extent of cartilage lesions formed, can be measured using a semi-quantitative histological scoring system.
# To test the utility of trehalose as a vehicle for intra-articularly injected compounds, a solution of trehalose was formulated as a 5% solution in 3 mM glycine-HCl buffer, having a pH of approximately 3. The solution was tested in the rat MMT model. Transection of the medial collateral ligament just below attachment to the meniscus was performed on 15 male Lewis rats. The meniscus was cut at its narrowest point (away from the ossicles) taking care not to damage the tibial surface.
# Beginning three days after MMT surgery, intra-articular injections of the trehalose solution were given weekly for five weeks, followed by euthanasia at week six.
# Such measurements are taken using an ocular micrometer from stained histological cross sections of the medial compartment of the joint.
# These measurements are taken using an ocular micrometer from stained histological cross sections of the medial compartment of the joint.
# Cartilage preservation also correlated to the extent of collagen degeneration. […] The extent of collagen degeneration is defined as follows: […]
# Severe damage (total or near total loss of collagen to tidemark, >90% thickness)
# Marked damage (extends through 61-90% of the cartilage thickness)
# Moderate damage (extends thru 31-60% of the cartilage thickness)
# Mild damage (extends through 11-30% of the cartilage thickness)
# Minimal damage (very superficial, affecting upper 10% only)
# Cartilage degeneration scores were determined histologically by estimating the area of non-viable (significant chondrocyte and proteoglycan loss but collagen retention) and completely absent cartilage matrix, then estimating the percentage of that area compared to the area of the extrapolated original cartilage cross sectional area. A score of 1-5 is assigned, with a score of 1 indicating cartilage degeneration of 10% or less, and a score of 5 indicating complete cartilage degeneration. In FIG. 8, Zone 1 refers to the one third of the medial tibial plateau closest to the transected meniscus. […]
smiles,measurement,setting,value
"OC[C@H]1O[C@H](O[C@H]2O[C@H](CO)[C@@H](O)[C@H](O)[C@H]2O)[C@H](O)[C@@H](O)[C@@H]1O [trehalose, α-D-glucopyranosyl α-D-glucopyranoside]",modified Mankin score,[1],significant improvement
same,width of significant cartilage lesions (chondrocyte and proteoglycan loss through 50% or more of cartilage thickness),"[2]; 5% solution in 3 mM glycine-HCl buffer pH approx. 3, intra-articular weekly for five weeks, euthanasia at week six, vs no treatment (FIG. 5)",significant reduction
same,lesion Depth Ratio,"[2]; 5% solution, intra-articular weekly for five weeks, vs no treatment (FIG. 6)",significant improvement
same,width of cartilage lesions with marked or severe collagen depletion,"[2]; 5% solution, intra-articular weekly for five weeks, vs no treatment (FIG. 7)",significantly reduced
same,cartilage degeneration score of medial tibial plateau,"[2]; all three zones, 5% solution, intra-articular weekly for five weeks (FIG. 8)",statistically improved
